In PubChem BioAssay (NCI):
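Grown in 96-well plates, cells were treated for 48 hours with each compound at five concentrations. Insufficient inhibition: endpoint recorded as highest concentration tested. TGI marks complete inhibition of growth.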

What was measured:
Assay in all cases: inhibition of tumour cell growth, NCI panel, 48 h
[1] = test system: HOP-62 NSCLC
[2] = test system: SK-MEL-5 melanoma
[3] = test system: KM12 colon
[4] = test system: SR leukemia
[5] = test system: K-562 leukemia
[6] = test system: OVCAR-5 ovarian
[7] = test system: HL-60(TB) leukemia
[8] = test system: U251 CNS

SMILES | TGI [1] [µM] | TGI [2] [µM] | TGI [3] [µM] | TGI [4] [µM] | TGI [5] [µM] | TGI [6] [µM] | TGI [7] [µM] | TGI [8] [µM]
C=C1C(=O)[C@]23[C@H](O)[C@H]1CC[C@H]2[C@@]12CO[C@@]3(O)C[C@@H]1C(C)(C)CC[C@@H]2O | > 25 | > 25 | 18.4 | > 25 | > 25 | > 25 | > 25 | 
COc1ccc(N2C(=O)C3c4[nH]c5ccccc5c4C4CCC(C(C)C)CC4C3C2=O)cc1 (stereo unspecified) | > 100 | > 100 | > 100 | > 100 | > 100 | > 100 |  | > 100
FC1CCN(C2(c3cccs3)CCCCC2)CC1 | > 100 | > 100 | > 100 |  | > 100 | > 100 | > 100 | > 100
CC(=O)c1ccc2c(c1)oc(=O)n2CCN(C)C | > 100 |  | > 100 | > 100 |  | > 100 | > 100 | > 100
Brc1cccc(C2(CCCC3(c4cccc(Br)n4)OCCO3)OCCO2)n1 | > 100 | > 100 | > 100 |  | > 100 | > 100 |  | 
CCC(=N\NC(N)=S)/C(C)=N/O | > 100 | > 100 | > 100 |  | > 100 | > 100 |  | > 100
CC[C@@]1(O)C(=O)OCc2c1cc1n(c2=O)Cc2c-1nc1ccccc1c2/C=N\NC(=O)C(N)CS (stereo partly specified) |  | 3.9 | > 100 | 1.04 | > 100 | > 100 | > 100 | > 34.5
Oc1[nH]c2ccccc2c1N=NC(=S)N1CCCCCC1 | 4.09 | 2.04 | 2.22 | 3.44 |  | 12.4 |  | 8.16
CC(=O)Oc1ccc(OC(Oc2ccccc2)c2ccccc2)cc1 (stereo unspecified) | > 100 |  | 58.7 | 54.5 | > 100 | > 100 | 41.8 | 35.5
CC(NC(=O)C(C)C(=O)NCc1ccc(C(F)(F)F)cc1)C(N)=O (stereo unspecified) |  | > 100 | > 100 | > 100 | > 100 | > 100 | > 100 | > 100
Cc1cc(S(=O)(=O)O)ccc1N=Nc1ccc(N=Nc2c(O)ccc3ccccc23)c(C)c1 | > 100 | > 100 | 83.3 |  | > 100 | > 100 |  | > 100
C1OCN2c3nonc3N3COCN4c5nonc5N1C2C43 (stereo unspecified) |  | > 100 | > 100 | > 100 | > 100 | > 100 | > 100 | > 100
O=c1c2c([nH]c3cc4c(cc13)OCO4)-c1ccccc1CCC2 | > 50 | > 50 | > 50 | 38.4 | > 50 | > 50 |  | > 50
CC(=O)O[C@H]1CC[C@@]2(C)C(=CC[C@@H]3[C@@H]2CC[C@]2(C)c4nc(N)c(C#N)cc4C[C@@H]32)C1 | 46.5 | 43.4 | > 100 |  | > 100 | > 100 | > 94.9 | > 100
c1ccc(C(CCN2CCCC2)c2ccccn2)cc1 (stereo unspecified) | > 100 | > 100 | > 100 | > 100 | > 100 | > 100 |  | > 100
O=C(CCc1cc(O)cc(O)c1)NCCc1ccc(O)c(O)c1 | > 100 | > 100 | > 100 | > 100 |  | > 100 |  | > 100
O=c1c2cc(-c3ccccc3)cnc2sn1-c1ccc([N+](=O)[O-])cc1 | 81.7 |  | > 100 | > 100 | > 100 | > 100 | > 100 | 95.1
c1ccc(C(=NNc2nc3ccccc3[nH]2)c2ccccn2)nc1 | 2.62 | 1.69 | > 80.3 | 0.271 | > 100 | 5.18 |  | > 69
C/C=C/C=C/C1=NN(c2cccc(S(=O)(=O)O)c2)C2(C1)SCC(=O)N2c1nc2ccccc2s1 (stereo unspecified) |  | > 100 | > 100 | 87.6 | > 100 | > 100 | > 100 | > 100
CN(C)CCCNC(=O)c1cc(NC(=O)c2cc(NC(=O)c3cc(NC(=O)CCCn4ccc(CO)c4CO)cn3C)cn2C)cn1C |  | 12.7 | > 100 | > 100 | > 100 | > 100 | > 100 | > 100
C=C1c2nc3ccccc3n2C=C(c2ccc(Cl)cc2)N1c1ccccc1 |  | > 100 | 24.7 | > 100 | > 100 | > 100 | > 100 | 44.8
ClCc1c(-c2ccccc2)nn(-c2ccccc2)c1CCl |  | 25.2 | 32.7 | 33.4 |  | 35 | 6.13 | 27.6
